Test [1] has as its system non-transfected mouse neuroblastoma cell line Neuro2A. The experiment in a line: Calcium imaging (Fura-2) in T-type calcium channel non-expressing Neuro2A cells. It is filed as cell-based. Particulars: SAK3 100 pM. As for the experimental part: (§1) The cells of mouse neuroblastoma cell line Neuro2A were purchased from the Human Science Research Resources Bank (#IFO50081, Osaka, Japan). […] Then, the Neuro2A cells were seeded to a glass bottom dish at a concentration of 1 to 2×10^6 cell/φ35-mm dish, and cultivated for 24 hours in a standard culture medium, and the cells were transfected using Lipofectamine 2000 (Invitrogen, Carsbad, Calif., USA) and using a plasmid vector containing a T-type calcium channel (Cav 3.1) genes (serum-free culture of Lipofectamine 2000: DNA=1 μl: 1 μg, 1.5 ml). The T-type calcium channel (Cav 3.1) gene, the plasmid vector pCMV-SPORT6, and the Lipofectamine 2000 were respectively purchased from OriGene Technologies, Inc., Thermo Fisher Scientific Ltd., and Invitrogen, and the transfection was performed according to the protocol attached to Lipofectamine 2000 other than the rate adjustment of the Lipofectamine 2000 and plasmid vector. The serum-free culture was replaced with a standard culture 6 hours after transfect, and calcium imaging (calcium concentration measurement) was performed after Cav 3.1 expression was confirmed after 48 hours of culture. T-type calcium channel expressing Neuor2A cells were dispersed in a glass bottom dish, and 2.5 μM of Fura-2-AM (Sigma, St Louis, Mo., USA) was added to the dish in perfusion (Krebs-Hepes buffer; KRH), then the dish was incubated at 37° C. for 30 minutes. A Fura-2-AM-free KRH was replaced with perfusion, and the Neuro2A cells were stimulized with SAK3 (100 pM) as the intracellular calcium was measured with a fluorescent microscope, then the cells were further stimulized with nicotin (1 μM), ATP (0.1 μM), DHPG (20 μM), as necessary.

The target in test [2] is T1, T-type calcium channel (Cav 3.1) (Homo sapiens, UniProt O43497).
T1 construct: Thermo Fisher Scientific Ltd. (vector pCMV-SPORT6); host or cells: mouse neuroblastoma cell line Neuro2A, transient transfection with Lipofectamine 2000
T1 sequence (O43497 whole entry): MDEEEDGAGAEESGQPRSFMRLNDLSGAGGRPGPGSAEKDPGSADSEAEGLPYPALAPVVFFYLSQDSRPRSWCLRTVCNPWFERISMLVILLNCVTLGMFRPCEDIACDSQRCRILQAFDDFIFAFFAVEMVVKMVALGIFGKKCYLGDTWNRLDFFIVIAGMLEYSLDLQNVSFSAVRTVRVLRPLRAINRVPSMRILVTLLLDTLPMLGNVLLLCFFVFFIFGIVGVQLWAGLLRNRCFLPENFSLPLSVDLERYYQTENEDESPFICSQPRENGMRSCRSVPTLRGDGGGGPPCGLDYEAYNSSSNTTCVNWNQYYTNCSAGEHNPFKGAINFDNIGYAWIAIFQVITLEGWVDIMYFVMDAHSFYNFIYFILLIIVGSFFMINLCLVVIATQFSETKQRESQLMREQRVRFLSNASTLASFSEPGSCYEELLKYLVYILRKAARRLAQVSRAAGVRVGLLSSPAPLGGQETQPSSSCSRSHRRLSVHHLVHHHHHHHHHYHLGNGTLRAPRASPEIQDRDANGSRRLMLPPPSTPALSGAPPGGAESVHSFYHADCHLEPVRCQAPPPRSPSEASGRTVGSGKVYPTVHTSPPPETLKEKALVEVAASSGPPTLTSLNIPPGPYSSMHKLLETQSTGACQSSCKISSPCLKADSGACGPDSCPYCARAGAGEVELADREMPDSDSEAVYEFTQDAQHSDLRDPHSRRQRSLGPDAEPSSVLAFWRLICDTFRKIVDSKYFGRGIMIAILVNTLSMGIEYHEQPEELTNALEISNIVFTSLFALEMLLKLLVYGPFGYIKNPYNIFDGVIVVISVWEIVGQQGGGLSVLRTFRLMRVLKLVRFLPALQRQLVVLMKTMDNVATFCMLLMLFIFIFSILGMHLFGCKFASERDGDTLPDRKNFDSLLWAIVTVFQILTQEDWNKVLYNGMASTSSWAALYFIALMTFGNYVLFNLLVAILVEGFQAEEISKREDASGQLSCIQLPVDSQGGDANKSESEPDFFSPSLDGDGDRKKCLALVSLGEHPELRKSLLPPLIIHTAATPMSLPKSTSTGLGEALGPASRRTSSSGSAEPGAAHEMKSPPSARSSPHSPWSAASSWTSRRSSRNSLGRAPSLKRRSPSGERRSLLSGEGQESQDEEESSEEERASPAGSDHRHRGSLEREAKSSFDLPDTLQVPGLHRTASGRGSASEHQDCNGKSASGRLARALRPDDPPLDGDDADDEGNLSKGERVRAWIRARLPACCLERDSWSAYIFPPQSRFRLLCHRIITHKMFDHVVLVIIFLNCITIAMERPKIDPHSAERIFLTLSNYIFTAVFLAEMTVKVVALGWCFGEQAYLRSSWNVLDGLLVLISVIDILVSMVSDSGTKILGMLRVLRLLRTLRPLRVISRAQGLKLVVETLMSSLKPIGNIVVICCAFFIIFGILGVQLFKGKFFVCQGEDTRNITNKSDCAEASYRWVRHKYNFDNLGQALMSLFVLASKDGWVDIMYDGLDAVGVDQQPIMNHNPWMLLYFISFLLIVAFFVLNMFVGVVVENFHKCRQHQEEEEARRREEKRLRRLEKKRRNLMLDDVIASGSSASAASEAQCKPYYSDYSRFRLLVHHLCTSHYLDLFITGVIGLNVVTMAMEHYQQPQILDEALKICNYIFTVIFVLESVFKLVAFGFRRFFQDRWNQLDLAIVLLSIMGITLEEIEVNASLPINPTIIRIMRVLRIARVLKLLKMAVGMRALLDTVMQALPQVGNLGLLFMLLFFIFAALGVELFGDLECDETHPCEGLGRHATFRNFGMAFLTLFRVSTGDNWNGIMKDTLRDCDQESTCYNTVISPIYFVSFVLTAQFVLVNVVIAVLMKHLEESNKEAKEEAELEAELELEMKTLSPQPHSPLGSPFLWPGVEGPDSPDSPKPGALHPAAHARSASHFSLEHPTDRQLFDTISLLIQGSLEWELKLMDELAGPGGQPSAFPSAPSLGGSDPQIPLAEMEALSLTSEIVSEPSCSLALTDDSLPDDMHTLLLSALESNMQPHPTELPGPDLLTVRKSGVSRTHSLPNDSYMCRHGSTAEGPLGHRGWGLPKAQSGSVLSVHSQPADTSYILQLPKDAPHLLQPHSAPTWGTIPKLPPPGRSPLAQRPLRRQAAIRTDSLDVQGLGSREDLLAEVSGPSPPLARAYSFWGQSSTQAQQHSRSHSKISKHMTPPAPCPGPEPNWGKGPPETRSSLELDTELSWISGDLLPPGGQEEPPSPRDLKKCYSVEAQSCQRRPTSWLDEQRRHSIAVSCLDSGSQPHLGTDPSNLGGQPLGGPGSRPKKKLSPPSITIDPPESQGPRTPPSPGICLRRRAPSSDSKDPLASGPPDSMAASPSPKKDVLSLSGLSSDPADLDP
Kind of test: Calcium imaging (Fura-2) in Cav 3.1 gene-transfected Neuro2A cells. It is filed as cell-based, mouse. Particulars: for change in calcium concentration after SAK3 addition: Cav3.1 expressing cells. As for the experimental part: as §1

The test system of test [3] is olfactolectomy mouse (OBX mouse). Kind of test: Y maze test in olfactolectomized (OBX) mouse. To be noted: 1 mg/kg administered into the abdominal, 30 minutes before test. It is filed as in vivo. On the procedure: A 10 weeks old DDY male mouse (Nippon SLC, Hamamatsu, Japan) was used in the experiment. The animal was bred in an animal experiment facility in the Pharmaceutical Research Department of the Tohoku University Graduate School under a certain condition (temperature 22±2° C., 12 h: 12 h light-dark cycle) by freely providing water and a feed. Note that the handling of animals and animal experiments in the present paper was performed with an approval of Tohoku University Experimental Animal Committee and under the Tohoku University Animal Experiment Guideline.
An olfactolectomy mouse (OBX mouse) was prepared using a DDY male mouse. The olfactolectomy operation was performed under the condition of anesthesia by pentobarbital sodium (50 mg/kg i.p.; Dainippon, Osaka, Japan). […]
Y maze test: A Y maze test was performed to assess the spontaneous action amount and the spatial activity memory of a mouse. The mouse was place at the end of one of the arms in the Y maze and allowed to freely explore the maze for 8 minutes, then the positions of the arms that the mouse travelled were recorded in the order of selection. The number of times that the mouse travelled to each arm in the time of measurement was counted as total arm entries. Further, the combinations of consecutively selecting 3 different arms were counted as No. of alternation. […]

Test [4] has the same test system. Kind of test: Acetylcholine liberation in hippocampus by microdialysis. It is filed as in vivo. As for the experimental part:
The amount of acetylcholine liberated in hippocampus is measured by the microdialysis method. The set up of guide cannula and dialysis probe (AG-4; Eicom, Kyoto, Japan) was conducted by fixing the mouse to the brain stereotaxis apparatus under the condition of maintaining anesthesia by 1.5% halothane (Takeda Chemical Industries Ltd., Osaka, Japan), setting up a guide cannula to the left hippocampus (AP=+3. L=+3, V=-1.8), and inserting a dialysis probe to the guide cannula. The collection of a intracerebral Ach sample from a mouse hippocampus was performed a day after the probe set up operation. After the recovery of the mouse from the operation was confirmed, the probe was connected to a micropump (ESP-64; Eicom) under an unanesthetized state and free activity, and a Ringer's solution (1.3 mM CaCl2. 3 mM KCl, 146 mM NaCl and 1 mM MgSO4) was introduced at a flow rate of 2 μL per minute. The dialysis sample was collected every 19.5 minutes and inserted to the acetylcholine separation column using an autoinjector (EAS-20, Eicom), and a system for a trace element analysis of biological samples (HTEC-500; Eicom) was used for analysis. SAK3 was intraperitoneally administered at 40 minutes before test (at the -40 minutes point in the graph of FIG. 8). […]

For `CCOC(=O)C1=C(N2CCCCC2)C2(CC1=O)C(=O)N=C1C(C)=CC=CN12` (centres unmarked) [SAK3], the “change in calcium concentration after SAK3 addition” value in test [1] (Cav3.1 non-expressing cell) is on record as “there was no change in the calcium concentration”; in test [2] (SAK3 100 pM), “An increase in calcium concentration was confirmed”; in test [2] (SAK3 100 pM, mibefradil (10 μM) added), “no increase in calcium concentration by SAK3 was confirmed”. The “amount of intracellular influent calcium ion induced by SAK3” value in test [1] (Cav3.1 non-transfected cells) is “do not show the change in the amount of influent calcium ion”; in test [2] (Cav3.1 transfected cells, SAK3 100 pM) it was “showed an increase in the amount of influent calcium ion”. Besides, the “amount of influent calcium ion induced by adding ATP” value in test [2] (ATP 0.1 μM, under the presence of SAK3 100 pM, transfected cells) was “not potentiated”. For the same molecule, in test [2] (Cav3.1 transfected cells, addition of mibefradil (10 μM)), the “increase in amount of influent calcium ion induced by SAK3” value was “nearly cancelled out”. In test [2] (DHPG 20 μM, under the presence of SAK3 100 pM, transfected cells), the “amount of influent calcium ion induced by adding DHPG” value is recorded as “not potentiated”. The “activation of T-type voltage dependent calcium channel relative to ST101” value in test [2] (compared with ST101) is reported as no less than 10 folds. Further, the “increase of the amount of influent calcium ion induced by nicotin under the presence of SAK3, transfected cells relative to non-transfected cells” value in test [2] (nicotin 1 μM, SAK3 100 pM) is given as 2 folds. Further, in test [2] (nicotin 1 μM, mibefradil (10 μM) added), the “effect of SAK3 on amount of influent calcium ion induced by nicotin” value is given as “cancelled out”. The “improvement of cognitive dysfunction by olfactolectomy (Y maze test)” value in test [3] is reported as “almost completely improved”. Moreover, the “amount of acetylcholine liberated by nicotine in hippocampus” value in test [4] (1.0 mg/kg administration group, compared with Sham group) was “above that of the Sham group”; in test [4] (intraperitoneal, 40 minutes before test, versus group without SAK3), “increased”.

(Values after US9173878B2, “Brain function improving agent” (Tohoku University, priority 2012, dated 2015).)
